The values below come from article PMC6837752, “Effectiveness of four types of neuraminidase inhibitors approved in Japan for the treatment of influenza” (PLoS ONE, 2019).

Where “and” joins values, the source holds several entries; their conditions need not be identical. Equal entries are not always repeated.

In assay [1] the test system is H275Y mutated (oseltamivir-resistant) influenza A/H1N1pdm09 virus. To be noted: human, in vivo.
The subject of assay [2] is oseltamivir and peramivir-resistant influenza A/H1N1pdm09. To be noted: five cases, treatment with oseltamivir or peramivir; cited from earlier work.
Assay [3] has as its target neuraminidase of H275Y mutated influenza A/H1N1pdm09 virus isolates (Influenza A virus (H1N1pdm09), UniProt C3W5S3, H275Y). The class given is biochemical. To be noted: read-out: 50% inhibitory concentration.

With `CC(=O)N[C@H]1[C@H]([C@H](O)[C@H](O)CO)OC(C(=O)O)=C[C@@H]1N=C(N)N` [Zanamivir, zanamivir], the “Time to fever alleviation” value in assay [1] was ≤ 48 h.

Turning to `[H]/N=C(\N)N[C@H]1C=C(C(=O)O)O[C@@H]([C@H](OC)[C@H](O)CO)[C@@H]1NC(C)=O` [Laninamivir, laninamivir], the “Time to fever alleviation” value in assay [1] is ≤ 48 h.

Consider `CCOC(=O)C1=C[C@@H](OC(CC)CC)[C@H](NC(C)=O)[C@@H](N)C1` [Oseltamivir, oseltamivir], for which the “Time until fever subsided from the start of treatment” value in assay [2] is ≤ 48 h. In assay [1], the Average fever duration was 89 h and 89 ± 47 h; the “Patients with fever alleviated within 48 hours” value is recorded as 40%; the “Patients with prolonged fever, which continued for more than 100 hours” value amounted to 60%.

For the compound peramivir, in assay [2], the “Time until fever subsided from the start of treatment” value was ≤ 48 h. Moreover, in assay [3], the IC50 is 24.7 nM and 22.1 nM and 29.8 nM and 19.1 nM and 18.7 nM and 22.4 nM and 23.3 nM.
